Source: patent publication US20070111258A1, “Compositions and methods for modulating the acute phase response” (priority 2005, published 2007)

Columns and labels:
[1] = system: BiP, CHOP, EDEM, spliced XBP1, SAP and CRP mRNAs; assay: UPR and APR mRNA induction in mouse liver after injection (quantitative real-time RT-PCR); format: in vivo; details: intraperitoneal injection of Tm 2 mg/kg; 24 hours
Description: Levels of spliced XBP1 mRNA were determined by quantitative real-time RT-PCR (lower panel). […] (B) Induction of CRP, SAP, BiP and spliced XBP1 mRNAs in mice injected with Tm. C57BU6J mice at 3-months of age were injected intraperitoneally with Tm (2 mg/kg body weight) in 150 mM dextrose solution. Mice were injected with the same volume of dextrose solution as a control. Liver tissues were collected from mice at 24 hours after injection for RNA isolation. (C-E) Induction of the BiP, CHOP, EDEM, spliced XBP1, SAP and CRP mRNAs in mice challenged with IL6, IL1β, LPS or Tm. Wild-type C57B1/6J mice at 3-months of age were intraperitoneally injected with recombinant murine IL6 (25 ng/gram body weight), recombinant murine IL1β (25 ng/gram body weight), LPS (3 μg/gram body weight) or Tm (2 μg/gram body weight). Mice were injected with the same volume of NaCL (for panels C and D) or dextrose (for panels E) solution as controls. At 24 hours after injection, liver samples were collected for isolating total RNA. Quantitative real-time RT-PCR was used to determine the mRNA levels. Fold changes of mRNA induction were determined after normalization of the mRNA levels to internal control 18S ribosomal RNA levels. Each bar denotes the mean±S.D., n=5 mice per injection.
Quantitative real-time RT-PCR was performed as previously described (Back et al., 2005). Briefly, total cellular RNA prepared was reverse-transcribed to cDNA using a random primer (Applied Biosystems). The reaction mixture, containing SYBR Green PCR Master Mix (Applied Biosystems), was run in a 7900HT Fast Real-Time PCR System (Applied Biosystems). Real-time PCR primer sequences for quantification of murine XBP1 mRNA splicing are: the forward primer 5′-[sequence]-3′, and the reverse primer 5′-[sequence]-3′. Other primer sequences were designed by Primer Express (Applied Biosystems).

CREBH = assay: Cleavage of flag-tagged CREBH in transfected wild-type CHO cells (nuclear fraction Western blot); format: cell-based, Chinese hamster; details: Tm 5 μg/ml 10 hours
Description: FIG. 5 depicts the cleavage of CREBH by proteases S1P and S2P upon ER stress. (A) CREBH is cleaved by S1P-KDEL, but not S1P-KDAS. COS7 cells were co-transfected with a construct expressing flag-tagged full-length CREBH and a construct expressing S1P-KDAS or S1P-KDEL. CREBH construct DNA (1 μg) was mixed with S1P-KDEL or S1P-KDAS construct DNA (1 or 2 μg as indicated) for transfection of cells in one well of a 6-well plate. COS7 cells expressing full-length CREBH were also cultured in the absence or presence of 0.5 μM BFA for 8 hours. COS7 cells expressing CREBH-ΔC, the cytosolic/nuclear form of CREBH, were included as a positive control. Expression and cleavage of CREBH were detected by Western blot analysis using an anti-flag antibody. (B) Cleavage of CREBH in wild-type (K1), S2P-deficient (M19), and […] CHO cells. […]
For analysis of expression and cleavage of CREBH protein, total cell lysates were prepared from H2.35 cells or COS7 cells using Nonidet P-40 lysis buffer (1% NP-40, 50 mM Tris-HCl at pH 7.5, 150 mM NaCl, 0.05% SDS) supplemented with protease inhibitors (Complete Mini from Roche Applied Science), 0.1 mM sodium vanadate, and 1 mM sodium fluoride. […] The total cell lysate, membrane and nuclear fractions were subjected to SDS-PAGE and then analyzed by Western blot using anti-flag monoclonal antibody or other antibodies. […]

## tunicamycin [Tm]
[1]
  expression of APR genes and UPR genes in the livers of mice: induced expression of both the APR genes and the UPR genes
CREBH
  increase of the nuclear form of CREBH: approximately 6 fold
